{
  "source": "patent US20100137843A1",
  "about": "“Delivery devices for modulating inflammation” (Searete LLC, a limited liability corporation of the State …, priority 2008, published 2010)",
  "origin": "cited, not measured here",
  "key": {"[1]": {"conditions": "single agent, 400 mg infused over one hour"}, "[2]": {"test_system": "Src family kinase", "conditions": "also its dependent cellular responses"}, "[3]": {"test_system": "aldehyde dehydrogenase", "conditions": "without toxicity"}, "[4]": {"test_system": "proteasome", "conditions": "cultured breast cancer cells; copper-bound"}, "[5]": {"molecular_target": "Toll-like receptor 4 (Homo sapiens, UniProt O00206)", "sequence (O00206 24-839, species assumed)": "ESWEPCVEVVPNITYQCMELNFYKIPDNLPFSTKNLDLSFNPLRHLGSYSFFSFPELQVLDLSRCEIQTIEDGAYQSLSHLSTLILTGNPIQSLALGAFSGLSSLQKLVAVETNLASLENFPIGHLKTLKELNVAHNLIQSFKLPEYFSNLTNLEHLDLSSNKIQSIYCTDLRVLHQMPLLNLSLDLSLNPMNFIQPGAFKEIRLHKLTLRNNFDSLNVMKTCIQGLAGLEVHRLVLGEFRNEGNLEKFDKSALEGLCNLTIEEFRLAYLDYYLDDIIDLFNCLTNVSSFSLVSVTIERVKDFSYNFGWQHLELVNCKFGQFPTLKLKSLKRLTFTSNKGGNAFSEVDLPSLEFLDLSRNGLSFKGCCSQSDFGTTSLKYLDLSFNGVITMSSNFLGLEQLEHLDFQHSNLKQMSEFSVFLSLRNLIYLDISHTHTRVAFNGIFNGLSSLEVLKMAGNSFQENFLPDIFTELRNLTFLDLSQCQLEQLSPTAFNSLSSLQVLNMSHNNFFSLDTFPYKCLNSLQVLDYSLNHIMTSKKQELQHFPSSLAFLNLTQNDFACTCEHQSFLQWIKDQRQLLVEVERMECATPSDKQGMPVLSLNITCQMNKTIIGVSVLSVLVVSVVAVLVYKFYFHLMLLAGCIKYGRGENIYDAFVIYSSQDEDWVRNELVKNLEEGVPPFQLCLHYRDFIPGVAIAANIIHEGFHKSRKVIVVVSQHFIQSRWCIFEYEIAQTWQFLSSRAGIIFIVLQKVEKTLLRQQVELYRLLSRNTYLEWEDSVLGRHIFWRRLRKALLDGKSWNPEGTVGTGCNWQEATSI"}, "[6]": {"test_system": "Epha1", "conditions": "at nanomolar concentrations"}},
  "data": [
    {"smiles": "CCN(CC)CCCC(C)Nc1ccnc2cc(Cl)ccc12.O=P(O)(O)O.O=P(O)(O)O", "note": "(stereo not drawn) [Chloroquine phosphate, 7-chloro-4-[[4-(diethylamino)-1-methylbutyl]amino]quinoline phosphate (1:2)]", "values": [
      {"measurement": "tolerability of intravenous infusion", "setting": "[1]", "value": "without complication"}
    ]},
    {"smiles": "CCN(CC)CCCC(C)Nc1ccnc2cc(Cl)ccc12", "note": "(stereo not drawn) [Chloroquine]", "values": [
      {"measurement": "inhibition of CpG-induced Src family kinase activation", "setting": "[2]", "value": "does not inhibit"}
    ]},
    {"smiles": "CCN(CC)C(=S)SSC(=S)N(CC)CC", "note": "[Disulfiram, 1-(diethylthiocarbamoyldisulfanyl)-N,N-diethyl-methanethioamide]", "values": [
      {"measurement": "inhibition of aldehyde dehydrogenase", "setting": "[3]", "value": "inhibits"},
      {"measurement": "proteasomal activity", "setting": "[4]", "value": "inhibits proteasomal activity"}
    ]},
    {"smiles": "Cl.Cl.Nc1ccccc1Oc1ccc2c(N)nsc2c1", "note": "[Example M62812, 3-amino-6-(2-aminophenoxy)-1,2-benzisothiazole dihydrochloride]", "values": [
      {"measurement": "inhibition of Toll-like receptor 4", "setting": "[5]", "value": "inhibitor"}
    ]},
    {"smiles": "Cc1nc(Nc2ncc(C(=O)Nc3c(C)cccc3Cl)s2)cc(N2CCN(CCO)CC2)n1.O", "note": "[dasatinib, N-(2-chloro-6-methylphenyl)-2-[[6-[4-(2-hydroxyethyl)-1-piperazinyl]-2-methyl-4-pyrimidinyl]amino]-5-thiazolecarboxamide, monohydrate]", "values": [
      {"measurement": "inhibition of Epha1", "setting": "[6]", "value": "inhibits"}
    ]}
  ]
}
